From patent US5760248A, “Tachykinin antagonists” (A.Menarini Industrie Farmaceutiche Riunite S.r.l., priority 1993, dated 1998)

molecular target: T1, NK1 receptor (Homo sapiens, UniProt P25103); assay: [3H] SP binding assay in IM9 Cell Line (intact cells)
T1 construct: endogenous in cells; host or cells: IM9 cells (intact)
Procedure: Assessment of biological activity (antagonist activity on NK1 receptor) of compounds of this invention was performed by means of the following binding and functional assays:
[3H] SP binding assay in IM9 Cell Line
Binding assay was performed with intact cells as described by Goso et al (Eur.J.Pharmacol. 254,221,1994).

T1 sequence (P25103 whole entry): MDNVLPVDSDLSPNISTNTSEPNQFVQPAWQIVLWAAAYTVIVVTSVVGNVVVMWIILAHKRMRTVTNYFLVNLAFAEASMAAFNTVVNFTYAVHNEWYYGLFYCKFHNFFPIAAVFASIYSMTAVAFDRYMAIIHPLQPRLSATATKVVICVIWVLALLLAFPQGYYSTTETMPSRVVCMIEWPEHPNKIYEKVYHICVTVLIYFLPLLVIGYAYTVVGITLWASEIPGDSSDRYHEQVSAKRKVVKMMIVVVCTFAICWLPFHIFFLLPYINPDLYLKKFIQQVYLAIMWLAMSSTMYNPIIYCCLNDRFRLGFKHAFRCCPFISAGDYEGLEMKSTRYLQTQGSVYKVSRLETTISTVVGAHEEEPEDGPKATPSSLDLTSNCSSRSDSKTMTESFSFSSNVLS

SMILES | pKi (Substance P antagonism Results)
O=C(NC1CCCCC1C(=O)N[C@@H](Cc1ccccc1)C(=O)OCc1ccccc1)c1c[nH]c2ccccc12 (stereo partly drawn) [1 (fast)] | < 6
O=C(Cc1ccccc1)N[C@H](Cc1ccccc1)NC(=O)C1CCCCC1NC(=O)c1c[nH]c2ccccc12 (stereo partly drawn) [2 (fast), 1-{N-(1(H)indol-3-yl-carbonyl) (1R,2S)-2-aminocyclohexanecarbonyl}-amino-1-(phenylacetyl)amino-2-phenyl-ethane] | < 6
CN(C(=O)Cc1ccccc1)[C@H](Cc1ccc2ccccc2c1)NC(=O)C1CCCCC1NC(=O)c1c[nH]c2ccccc12 (stereo partly drawn) [3 (fast), 1-{N-(1(H)indol-3-yl-carbonyl) (1R,2S)-2-aminocyclohexanecarbonyl}-amino-1-(N-methyl-N-phenylacetyl)amino-2(2-naphthyl)ethane] | 8.4
CN(C(=O)Cc1ccccc1)[C@H](Cc1ccc2ccccc2c1)NC(=O)C1CCCCC1NC(=O)c1c[nH]c2ccccc12 (stereo partly drawn) [3 (slow), 1-{N-(1(H)indol-3-yl-carbonyl)(1S,2R)-2-aminocyclohexanecarbonyl}-amino-1-(N-methyl-N-phenylacetyl) amino-2(2-naphthyl)ethane] | < 5
O=C(NC1CCCCC1C(=O)N[C@H](COCc1cc(C(F)(F)F)cc(C(F)(F)F)c1)Cc1ccc2ccccc2c1)c1c[nH]c2ccccc12 (stereo partly drawn) [4 (fast)] | < 5
C[C@H](C(=O)N(C)[C@H](Cc1ccc2ccccc2c1)NC(=O)C1CCCCC1NC(=O)c1c[nH]c2ccccc12)c1ccccc1 (stereo partly drawn) [9 (fast), 1-{N-(1(H)indol-3-yl-carbonyl)(1R,2S)-2-aminocyclohexanecarbonyl}-amino-1-(N-methyl-N-((S)2-phenylpropionyl))amino-2-(2-naphthyl)ethane] | < 5
C[C@@H](C(=O)N(C)[C@H](Cc1ccc2ccccc2c1)NC(=O)C1CCCCC1NC(=O)c1c[nH]c2ccccc12)c1ccccc1 (stereo partly drawn) [10 (fast), 1-{N-(1(H)indol-3-yl-carbonyl)(1R,2S)-2-aminocyclohexane-carbonyl}-amino-1-(N-methyl-N-((R)2-phenylpropionyl))Ammino-2-(2-naphthyl)ethane] | 8.7
CN(C(=O)Cc1ccc(Cl)cc1)[C@H](Cc1ccc2ccccc2c1)NC(=O)C1CCCCC1NC(=O)c1c[nH]c2ccccc12 (stereo partly drawn) [11 (fast), 1-{N-(1(H)indol-3-yl-carbonyl)(1R,2S)-2-aminocyclohexanecarbonyl}-amino-1-(N-methyl-N-4-chlorophenylacetyl)amino-2(2-naphthyl)ethane] | 8.4
Cc1ccc(CC(=O)N(C)[C@H](Cc2ccc3ccccc3c2)NC(=O)C2CCCCC2NC(=O)c2c[nH]c3ccccc23)cc1 (stereo partly drawn) [12 (fast), 1-{N-(1(H)indol-3-yl-carbonyl)(1R,2S)-2-aminocyclohexanecarbonyl}-amino-1-(N-methyl-N-4-methylphenylacetyl)amino-2(2-naphthyl)ethane] | 8.7
